Assays:
[1] = biological target: T1, CDK12 (Homo sapiens, UniProt Q9NYV4); assay: CDK12 nuclear protein level: immunofluorescence/high content analysis in CAL-120 cells; type: cell-based; settings: for DC50: CAL-120 cells, 24 h, nuclear CDK12 staining intensity, median, read-out: CDK12 degradation IF DC50 - [mol/l] (median); for (IC50 CDK12 high ATP) to (Degradation DC50 CDK12) ratio: ratio of IC50 CDK12 hATP (2 mM ATP) to DC50 CDK12 (IF, CAL-120)
T1 construct: endogenous in cells; host or cells: CAL-120 human breast cancer cells (DSMZ ACC 459)
Protocol: 6. CDK12 Nuclear Protein Level: Immunofluorescence/High Content Analysis
In the context of the present invention, the term “DC50 CDK12” refers to the DC50 values obtained according to the assay described in this section (6) herein below, i.e. the DC50 values for the degradation of CDK12.:
CAL-120 human breast cancer cells (DSMZ ACC 459) are seeded in 1536-well microtiter plates (800 cells per well) containing 50 nanoL of compounds in Dose-Response. Control wells received DMSO or Reference Example 1. Plates are then incubated for 24 h at 37° C. in an humidified incubator and fixed with 4% PFA for 10 min. Then immunofluorescence (IF) against CDK12 (CellSignalling CDK12 Antibody #11973, rabbit, 1:100 dilution) is performed using standard IF protocols. Cells are then stained with Hoechst 33342 (Life Technologies, H-1399, 0.1 microg/mL) and imaged on an automated confocal microscopy system (e.g. Perkin Elmer Opera Phenix). Nuclear and cytoplasmic intensity as well as the nuclear/cytoplasmic intensity ratio is determined by automated image analysis using custom generated scripts (MetaXpress). Data is then transferred to Genedata Screener software, normalized to DMSO and control and DC50 values (degrading concentration to achieve 50% reduction of nuclear CDK12 staining intensity relative to controls) are reported.

[2] = biological target: T2, CDK9/CyclinT1 (Homo sapiens, UniProt P50750); assay: CDK9/CycT1 high ATP kinase assay (TR-FRET); type: biochemical; settings: 2 mM ATP (high ATP); median; read-out: CDK9/CyclinT1, 2 mM ATP (high ATP) IC50 - [mol/l] (median)
T2 construct: Recombinant full-length His-tagged human CDK9 and CycT1; His-tag; purchased Life Technologies PV4131; host or cells: insect cells
Protocol: 2.5 CDK9/CycT1 High ATP Kinase Assay
CDK9/CycT1 -inhibitory activity of compounds of the present invention at a high ATP concentration after preincubation of enzyme and test compounds was quantified employing the CDK9/CycT1 TR-FRET assay as described in the following paragraphs.
Recombinant full-length His-tagged human CDK9 and CycT1, expressed in insect cells and purified by Ni-NTA affinity chromatography, were purchased from Life Technologies (Cat. No PV4131). As substrate for the kinase reaction biotinylated peptide biotin-Ttds-YISPLKSPYKISEG (C-terminus in amide form) was used which can be purchased e.g. form the company JERINI peptide technologies (Berlin, Germany).
For the assay 50 nanoL of a 100 fold concentrated solution of the test compound in DMSO was pipetted into either a black low volume 384 well microtiter plate or a black 1536 well microtiter plate (both Greiner Bio-One, Frickenhausen, Germany), 2 microL of a solution of CDK9/CycT1 in aqueous assay buffer [50 millimol/L Tris/HCl pH 8.0, 10 millimol/L MgCl2, 1.0 millimol/L dithiothreitol, 0.1 millimol/L sodium ortho-vanadate, 0.01% (v/v) Nonidet-P40 (Sigma)] were added and the mixture was incubated for 15 min at 22° C. to allow pre-binding of the test compounds to the enzyme before the start of the kinase reaction. Then the kinase reaction was started by the addition of 3 microL of a solution of adenosine-tri-phosphate (ATP, 3.3 millimol/L=>final conc. in the 5 microL assay volume is 2 millimol/L) and substrate (1.25 micromol/L =>final conc. in the 5 microL assay volume is 0.75 micromol/L) in assay buffer and the resulting mixture was incubated for a reaction time of 25 min at 22° C. The concentration of CDK9/CycT1 was adjusted depending of the activity of the enzyme lot and was chosen appropriate to have the assay in the linear range, typical concentrations were in the range of 0.5 microg/mL. The reaction was stopped by the addition of 3 microL of a solution of TR-FRET detection reagents (0.33 micromol/L streptavidine-XL665 [Cisbio Bioassays, Codolet, France] and 1.67 nanomol/L anti-RB(pSer807/pSer811)-antibody from BD Pharmingen [#558389] and 2 nanomol/L LANCE EU-W1024 labeled anti-mouse IgG antibody [Perkin-Elmer, product no. AD0077]) in an aqueous EDTA-solution (167 millimol/L EDTA, 0.2% (w/v) bovine serum albumin in 100 millimol/L HEPES pH 7.5).
The resulting mixture was incubated 1 h at 22° C. to allow the formation of complex between the phosphorylated biotinylated peptide and the detection reagents. Subsequently the amount of phosphorylated substrate was evaluated by measurement of the resonance energy transfer from the Eu-chelate to the streptavidine-XL. Therefore, the fluorescence emissions at 620 nm and 665 nm after excitation at 350 nm was measured in a TR-FRET reader, e.g. a Pherastar (BMG Labtechnologies, Offenburg, Germany) or a Viewlux (Perkin-Elmer). The ratio of the emissions at 665 nm and at […] was taken as the measure for the amount of phosphorylated substrate. The data were normalised (enzyme reaction without inhibitor=0% inhibition, all other assay components but no enzyme=100% inhibition).

T1 sequence (Q9NYV4 whole entry): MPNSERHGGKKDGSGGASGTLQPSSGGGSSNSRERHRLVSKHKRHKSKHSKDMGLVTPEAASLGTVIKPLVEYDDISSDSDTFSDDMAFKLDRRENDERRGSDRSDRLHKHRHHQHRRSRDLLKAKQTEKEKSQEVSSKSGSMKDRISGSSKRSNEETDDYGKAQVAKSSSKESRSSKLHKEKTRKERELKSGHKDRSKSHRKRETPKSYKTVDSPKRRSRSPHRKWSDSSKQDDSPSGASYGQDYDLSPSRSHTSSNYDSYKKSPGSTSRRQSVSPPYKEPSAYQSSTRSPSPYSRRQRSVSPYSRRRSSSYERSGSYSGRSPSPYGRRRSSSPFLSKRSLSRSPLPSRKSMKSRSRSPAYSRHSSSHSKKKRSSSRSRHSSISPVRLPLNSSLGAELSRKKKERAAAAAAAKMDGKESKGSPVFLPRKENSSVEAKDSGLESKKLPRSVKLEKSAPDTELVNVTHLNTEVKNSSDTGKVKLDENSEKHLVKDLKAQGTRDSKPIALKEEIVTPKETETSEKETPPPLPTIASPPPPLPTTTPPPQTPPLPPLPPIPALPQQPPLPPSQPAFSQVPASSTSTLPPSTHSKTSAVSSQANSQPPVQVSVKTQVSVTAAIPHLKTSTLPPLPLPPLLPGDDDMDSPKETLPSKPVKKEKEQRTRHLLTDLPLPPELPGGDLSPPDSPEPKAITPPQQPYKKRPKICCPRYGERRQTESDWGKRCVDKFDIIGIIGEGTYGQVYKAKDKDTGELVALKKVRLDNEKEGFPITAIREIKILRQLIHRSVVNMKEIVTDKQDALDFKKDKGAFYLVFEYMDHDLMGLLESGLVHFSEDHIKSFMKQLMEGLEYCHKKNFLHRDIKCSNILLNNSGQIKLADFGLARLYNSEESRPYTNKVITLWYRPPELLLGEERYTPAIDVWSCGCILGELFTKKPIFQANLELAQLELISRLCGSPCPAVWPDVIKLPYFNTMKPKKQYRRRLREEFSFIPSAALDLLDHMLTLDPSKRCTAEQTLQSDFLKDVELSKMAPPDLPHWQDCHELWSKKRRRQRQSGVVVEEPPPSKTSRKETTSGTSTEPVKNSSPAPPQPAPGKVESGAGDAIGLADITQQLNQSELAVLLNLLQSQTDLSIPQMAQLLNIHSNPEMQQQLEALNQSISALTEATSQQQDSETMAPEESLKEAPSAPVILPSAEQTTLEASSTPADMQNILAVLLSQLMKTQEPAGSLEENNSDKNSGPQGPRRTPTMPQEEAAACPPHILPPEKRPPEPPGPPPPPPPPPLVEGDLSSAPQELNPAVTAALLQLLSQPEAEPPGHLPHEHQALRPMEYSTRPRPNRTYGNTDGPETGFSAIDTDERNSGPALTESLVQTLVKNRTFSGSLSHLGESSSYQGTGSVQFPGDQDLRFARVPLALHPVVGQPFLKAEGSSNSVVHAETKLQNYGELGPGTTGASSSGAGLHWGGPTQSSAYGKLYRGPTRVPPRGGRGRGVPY
T1 sequence (O75909 whole entry partner): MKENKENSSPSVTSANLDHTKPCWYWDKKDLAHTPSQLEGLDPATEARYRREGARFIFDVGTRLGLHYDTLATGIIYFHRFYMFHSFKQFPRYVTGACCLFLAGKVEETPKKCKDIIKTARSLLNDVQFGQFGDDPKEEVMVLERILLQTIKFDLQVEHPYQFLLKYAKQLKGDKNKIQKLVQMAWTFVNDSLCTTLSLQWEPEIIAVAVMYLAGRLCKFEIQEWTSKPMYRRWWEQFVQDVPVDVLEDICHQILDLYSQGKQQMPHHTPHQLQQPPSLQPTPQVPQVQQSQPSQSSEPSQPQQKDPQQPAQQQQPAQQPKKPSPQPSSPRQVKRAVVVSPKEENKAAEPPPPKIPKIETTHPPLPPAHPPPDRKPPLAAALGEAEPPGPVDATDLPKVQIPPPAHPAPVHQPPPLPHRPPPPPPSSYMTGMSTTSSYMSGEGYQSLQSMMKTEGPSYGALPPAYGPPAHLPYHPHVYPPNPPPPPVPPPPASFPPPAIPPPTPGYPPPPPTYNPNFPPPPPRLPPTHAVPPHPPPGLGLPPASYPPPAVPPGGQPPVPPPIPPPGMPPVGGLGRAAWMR
T2 sequence (P50750 whole entry): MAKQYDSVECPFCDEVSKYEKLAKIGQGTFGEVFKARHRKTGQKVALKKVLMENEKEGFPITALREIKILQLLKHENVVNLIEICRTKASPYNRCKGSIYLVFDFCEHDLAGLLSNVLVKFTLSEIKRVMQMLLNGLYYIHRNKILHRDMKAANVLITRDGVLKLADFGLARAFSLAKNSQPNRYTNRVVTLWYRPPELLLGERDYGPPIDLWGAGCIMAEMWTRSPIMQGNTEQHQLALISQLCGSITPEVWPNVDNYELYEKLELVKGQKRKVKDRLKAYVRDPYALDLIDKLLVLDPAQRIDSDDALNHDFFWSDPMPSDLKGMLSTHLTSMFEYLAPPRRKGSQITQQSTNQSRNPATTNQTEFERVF
T2 sequence (O60563 whole entry partner): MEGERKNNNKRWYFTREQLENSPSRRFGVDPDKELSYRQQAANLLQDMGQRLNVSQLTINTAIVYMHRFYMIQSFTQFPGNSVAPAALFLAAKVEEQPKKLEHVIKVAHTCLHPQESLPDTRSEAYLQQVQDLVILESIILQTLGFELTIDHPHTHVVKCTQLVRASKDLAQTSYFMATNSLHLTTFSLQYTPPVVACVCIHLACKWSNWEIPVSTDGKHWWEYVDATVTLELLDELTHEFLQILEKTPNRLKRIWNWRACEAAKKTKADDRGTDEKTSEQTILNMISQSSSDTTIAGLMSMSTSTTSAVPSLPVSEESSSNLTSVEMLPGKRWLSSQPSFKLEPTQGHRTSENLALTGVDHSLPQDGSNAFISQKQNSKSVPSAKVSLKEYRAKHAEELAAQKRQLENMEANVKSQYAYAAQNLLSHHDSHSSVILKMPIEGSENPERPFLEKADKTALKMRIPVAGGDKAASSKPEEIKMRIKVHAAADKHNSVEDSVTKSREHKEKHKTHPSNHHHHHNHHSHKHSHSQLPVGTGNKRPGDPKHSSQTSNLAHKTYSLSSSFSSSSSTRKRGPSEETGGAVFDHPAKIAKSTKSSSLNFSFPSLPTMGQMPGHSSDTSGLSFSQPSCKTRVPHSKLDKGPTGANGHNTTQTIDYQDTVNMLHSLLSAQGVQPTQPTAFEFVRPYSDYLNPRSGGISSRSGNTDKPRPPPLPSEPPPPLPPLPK

Structure (SMILES)	DC50 [1] [nM]	(IC50 CDK12 high ATP) to (Degradation DC50 CDK12) ratio [1]	IC50 [2] [nM]
Cc1ccc2[nH]c(CNc3nn(C4CCN(C)CC4)c4nc(C5CC5)cnc34)nc2c1C [Example 28, 6-cyclopropyl-N-[(4,5-dimethyl-1H-benzimidazol-2-yl)methyl]-1-(1-methylpiperidin-4-yl)-1H-pyrazolo[3,4-b]pyrazin-3-amine]	10.6	>1880	> 20000
CN1CCCC(n2nc(NCc3nc4ccccc4[nH]3)c3ncc(C4CC4)nc32)CC1 (single isomer, unassigned) [Example 38, (−) or (+)-N-[(1H-benzimidazol-2-yl)methyl]-6-cyclopropyl-1-[(4R*)-1-methylazepan-4-yl]-1H-pyrazolo[3,4-b]pyrazin-3-amine]	13.2	>1516	> 20000
Fc1cccc2[nH]c(CNc3nn(C4CCOCC4)c4nc(C5CC5)cnc34)nc12 [Example 23, 6-cyclopropyl-N-[(4-fluoro-1H-benzimidazol-2-yl)methyl]-1-(oxan-4-yl)-1H-pyrazolo[3,4-b]pyrazin-3-amine]	31.7	388	> 20000
c1ccc2[nH]c(CNc3nn(C4CCOC4)c4nc(C5CC5)cnc34)nc2c1 (single isomer, unassigned) [Example 17, (+) or (−)-N-[(1H-benzimidazol-2-yl)methyl]-6-cyclopropyl-1-(oxolan-3-yl)-1H-pyrazolo[3,4-b]pyrazin-3-amine]	24.8	>807	> 20000
CC(CCN(C)C)n1nc(NCc2nc3ccccc3[nH]2)c2ncc(C3CC3)nc21 (single isomer, unassigned) [Example 63, (+) or (−)-N-[(1H-benzimidazol-2-yl)methyl]-6-cyclopropyl-1-[4-(dimethylamino)butan-2-yl]-1H-pyrazolo[3,4-b]pyrazin-3-amine]	912	>22	> 20000
c1ccc2[nH]c(CNc3nn(C4CCOC4)c4nc(C5CC5)cnc34)nc2c1 (single isomer, unassigned) [Example 18, (-) or (+) -N-[(1H-benzimidazol-2-yl)methyl]-6-cyclopropyl-1-[oxolan-3-yl]-1H-pyrazolo[3,4-b]pyrazin-3-amine]	17.5	>1142	> 20000
CN1CCC(n2nc(NCc3nc4cc(Cl)c(F)cc4[nH]3)c3ncc(C4CC4)nc32)CC1 [Example 29, N-[(5-chloro-6-fluoro-1H-benzimidazol-2-yl)methyl]-6-cyclopropyl-1-(1-methylpiperidin-4-yl)-1H-pyrazolo[3,4-b]pyrazin-3-amine]	17.5	>1145	> 20000
CC(C)n1nc(NCc2nc3ccccc3[nH]2)c2ncc(C3CC3)nc21 [Example 14, N-[(1H-benzimidazol-2-yl)methyl]-6-cyclopropyl-1-(propan-2-yl)-1H-pyrazolo[3,4-b]pyrazin-3-amine]	49.6	>403	> 20000
CN1CCC(n2nc(NCc3nc4ccccc4[nH]3)c3ncc(C4CC4)nc32)C1 (single isomer, unassigned) [Example 79, (−) or (+)-N-[(1H-benzimidazol-2-yl)methyl]-6-cyclopropyl-1-(1-methylpyrrolidin-3-yl)-1H-pyrazolo[3,4-b]pyrazin-3-amine]	41.2		> 20000
FC1(F)CCC(n2nc(NCc3nc4ccccc4[nH]3)c3ncc(C4CC4)nc32)CC1 [Example 36, N-[(1H-benzimidazol-2-yl)methyl]-6-cyclopropyl-1-(4,4-difluorocyclohexyl)-1H-pyrazolo[3,4-b]pyrazin-3-amine]	162	>124	> 20000
CN1CCC(n2nc(NCc3nc4cc(SC(F)(F)F)ccc4[nH]3)c3ncc(C4CC4)nc32)CC1 [Example 27, 6-cyclopropyl-1-(1-methylpiperidin-4-yl)-N-({5-[(trifluoromethyl)sulfanyl]-1H-benzimidazol-2-yl}methyl)-1H-pyrazolo[3,4-b]pyrazin-3-amine]	49.1	41	> 20000
OCCCn1nc(NCc2nc3ccccc3[nH]2)c2ncc(C3CC3)nc21 [Example 60, 3-(3-{[(1H-benzimidazol-2-yl)methyl]amino}-6-cyclopropyl-1H-pyrazolo[3,4-b]pyrazin-1-yl)propan-1-ol]	41.2	>102	> 20000
CN1CCC(n2nc(NCc3nc4cc(F)c(F)cc4[nH]3)c3ncc(C4CC4)nc32)CC1 [Example 30, 6-cyclopropyl-N-[(5,6-difluoro-1H-benzimidazol-2-yl)methyl]-1-(1-methylpiperidin-4-yl)-1H-pyrazolo[3,4-b]pyrazin-3-amine]	17.1	>1376	> 20000
CC(C)(C)OC(=O)N1CCC(n2nc(NCc3nc4ccccc4[nH]3)c3ncc(C4CC4)nc32)CC1 [Example 11, tert-butyl 4-(3-{[(1H-benzimidazol-2-yl)methyl]amino}-6-cyclopropyl-1H-pyrazolo[3,4-b]pyrazin-1-yl)piperidine-1-carboxylate]	74.9	>267	> 20000
CC(CCN(C)C)n1nc(NCc2nc3ccccc3[nH]2)c2ncc(C3CC3)nc21 (single isomer, unassigned) [Example 64, (−) or(+)-N-[(1H-benzimidazol-2-yl)methyl]-6-cyclopropyl-1-[4-(dimethylamino)butan-2-yl]-1H-pyrazolo[3,4-b]pyrazin-3-amine]	82.6	>242	> 20000
Cn1nc(NCc2nc3ccccc3[nH]2)c2ncc(C3CC3)nc21 [Example 15, N-[(1H-benzimidazol-2-yl)methyl]-6-cyclopropyl-1-methyl-1H-pyrazolo[3,4-b]pyrazin-3-amine]	155	>129	> 20000
Cc1c(Cl)ccc2[nH]c(CNc3nn(C4CCN(C)CC4)c4nc(C5CC5)cnc34)nc12 [Example 21, N-[(5-chloro-4-methyl-1H-benzimidazol-2-yl)methyl]-6-cyclopropyl-1-(1-methylpiperidin-4-yl)-1H-pyrazolo[3,4-b]pyrazin-3-amine]	28.7	>697	> 20000
